According to patent publication US20220273590A1, “COMPOUNDS FOR PREVENTION AND TREATMENT OF POST-OPERATIVE COGNITIVE DYSFUNCTION” (ABREXA PHARMACEUTICALS, INC., priority 2019, published 2022):

Experiments:
[1] = Body weight and food intake in the POCD study; format: in vivo, Wistar rats
Description: A total of 60 male Wistar rats (Wu-Wistar, Envigo, The Netherlands) were studied in 5 cohorts. For that, rats were ordered in 5 groups of different weight classes (220-280 g) to ensure that each group would be around 350 g at the time of surgery. Rats arrived at the facility at least 2 weeks before start of the experiments, and were put on reversed light:dark cycle 12:12 with the lights out at 09:00 am. Rats were housed in groups of 2-3 in standard cages under controlled conditions (temperature of 20+/−2 degrees and humidity of 50% +/−10%). The rats were fed with water and Teklad (Envigo, 2018) chow food ad libitum. After surgery, rats were housed individually. Approval of all experiments was given by the applicable animal and welfare committee of the Netherlands.
One week before surgery, chronic treatment J147 treatment started and continued until the end of the experiment. The day of surgery, rats for acute treatment received their J147 (4-5 hours before surgery) by gavage, while the designated control rats received vehicle gavage. Rats were subjected to abdominal surgery, and allowed to recover. After that rats were housed individually. Non-surgery control were placed in individual cages at the same time. Blood samples were collected from the jugular vein catheter at the time of surgery (plasma levels of J147) and at 1, 6 and 24 hours after surgery (plasma inflammatory markers). The first week post-surgery, rats were weighed daily and food intake was measured. Day 7-12 post-surgery rats were subjected to behavioral testing regarding general exploratory behavior and cognitive performance. On Day 14 rats were sacrificed, blood samples were collected from cardiac puncture, CSF was collected, and brain tissue was collected and processed for immunohistochemistry or molecular analyses.
For chronic oral treatment, J147 was added to the food (Teklad 2018, Envigo) at a concentration of 500 mg/kg. J147 was provided by Abrexa and Envigo prepared the food. […] After surgery food intake was measured daily during the last hour of the light phase. […]

animal model of POCD = experiment: Open Field test after abdominal surgery; format: in vivo, Wistar rats
Procedure: Male Wistar rats (˜350 g) were randomly divided into 4 experimental groups; non-surgery; control abdominal surgery; surgery+acute J147 treatment (7 mg/rat by gavage, 4-5 hours before surgery); surgery+chronic J147 (500 mg/kg food, 1 week before surgery until the end of the study). Timed blood samples were collected. Days 9-11 post surgery, general behavior (Open field: OF) and cognitive performance (Novel Object/Novel Location Recognition: NOR/NLR; Morris Water Maze: MWM) were tested. Day 14, rats were sacrificed and blood and brain tissue were collected for further analyses. (Neuro)inflammation was examined by circulating cytokine levels and microglia activation in the brain. Abdominal surgery was performed as described previously by Hovens et al., 2014. Rats were anaesthetized using sevoflurane (±2.5% in air/O2=2/1) and received 0.01 mg/kg buprenorphine s.c. A heating blanket was used to preserve body temperature. An incision was made along the linea alba and the intestines were exteriorised. The upper mesenteric artery was isolated from surrounding tissue and clamped for a period of 30 minutes during which the intestines and surgical wound were covered with gauze soaked in saline, to prevent dehydration. During this time the animals were equipped with an indwelling jugular vein catheter to mimic insertion of a venous line in patients and allow timed blood sampling. For that, an incision was made at the subclavical region, the jugular vein was freed from surrounding tissue and a catheter was introduced and advanced into the vena cava, just above the right atrium. The other end of the catheter was guided subcutaneously to the head, and fixated on the skull with dental cement. The catheter was filled with PVP dissolved in heparin solution and closed with a plastic plug. After subsequent removal of the mesenteric artery clamp, the intestines were gently placed back and the abdominal wall and skin were closed separately by sutures. Clamping and reperfusion were visually verified by absence or presence of pulsation in the mesenteric artery distal to the clamp site. From induction to recovery, the procedure takes approximately 60 minutes. Post-operatively, the animals were allowed to recover and subsequently were housed individually. Rats were weighed daily at the last hour of the dark period. Maximal weight loss within the first 5 days post-surgery was taken as measure of experienced severity of surgery. Behavioral tests were performed in the dark (active) period of the rats. […] The movement as well as location of the rat was recorded as time in corner, walls and center, number of visits in the center and the distance walked, and analyzed with Ethovision (Noldus, the Netherlands). Rearing behavior was analyzed by Eline. […]

COc1cccc(/C=N/N(C(=O)C(F)(F)F)c2ccc(C)cc2C)c1 [J147]
body weight gained during first week on the J147 diet ([1]; chronic J147 500 mg/kg food, week before surgery, control fed rats 33.5±3.0 g): 32.0 ± 1.8 g
average food eaten during the first 10 days after surgery ([1]; chronic J147 diet, individual housing, surgery control food 20±1 g): 20 ± 1 g
body weight loss after surgery ([1]; chronically treated rats (J147 500 mg/kg food)): lost significantly less body weight after surgery
Open field: effect of treatment on time in the center area or distance walked (animal model of POCD; acute or chronic J147, surgery rats): no significant effects
Open field: rearing behavior (animal model of POCD; surgery + chronic J147): significantly more rearing behavior
Open field: visits to the center area (animal model of POCD; surgery + chronic J147): significantly more often
Open field: time in the center (animal model of POCD; surgery + chronic J147, versus the other groups): tend to spend more time in the center
